# Assay results taken from patent publication US10131652B2, “Pyrimidinyloxy benzene derivatives as herbicides” (E. I. DU PONT DE NEMOURS AND COMPANY, priority 2014, dated 2018).
# Experiments:
# Format in all cases: in vivo
# [1] = tested on: yellow nutsedge (Cyperus esculentus); assay: Test D pre-/postemergence plant response
# Summary of the method: (§1)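 Two application timings were run together: preemergence onto seeded loam–sand pots, and postemergence onto 1- to 4-leaf plants (2 to 18 cm) in peat/vermiculite medium with starter nutrients. Formulation was a non-phytotoxic solvent with surfactant. Ratings, 0 to 100, were made visually versus controls after 13 to 15 greenhouse days.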
# [2] = tested on: johnsongrass (Sorghum halepense); assay: Test D pre-/postemergence plant response
# Summary of the method: as §1
# [3] = tested on: oilseed rape (Brassica napus); assay: Test D pre-/postemergence plant response
# Summary of the method: as §1
# [4] = tested on: velvetleaf (Abutilon theophrasti); assay: Test D pre-/postemergence plant response
# Summary of the method: as §1
# [5] = tested on: large (Lg) crabgrass (Digitaria sanguinalis); assay: Test D pre-/postemergence plant response
# Summary of the method: as §1
# soybean (Glycine max) = assay: Test D pre-/postemergence plant response
# Summary of the method: as §1
# [6] = tested on: winter wheat (Triticum aestivum); assay: Test D pre-/postemergence plant response
# Summary of the method: as §1
# [7] = tested on: small-flower umbrella sedge (Cyperus difformis); assay: Test C flooded paddy test plant response; details: Flood, 250 g ai/ha; scale of 0 to 100 where 0 is no effect and 100 is complete control; 13 to 15 days
# Summary of the method: (§2)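 Plants grown to 2-leaf stage, flooded 3 cm above soil; compounds applied directly into paddy water, depth kept throughout. Visual rating versus controls after 13 to 15 days in greenhouse, 0 (no effect) to 100 (complete control).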
# [8] = tested on: barnyardgrass (Echinochloa crus-galli); assay: Test C flooded paddy test plant response; details: Flood, 250 g ai/ha; scale of 0 to 100 where 0 is no effect and 100 is complete control; 13 to 15 days
# Summary of the method: as §2
# rice (Oryza sativa) = assay: Test C flooded paddy test plant response; details: Flood, 250 g ai/ha; scale of 0 to 100 where 0 is no effect and 100 is complete control; 13 to 15 days
# Summary of the method: as §2
# [9] = tested on: ducksalad (Heteranthera limosa); assay: Test C flooded paddy test plant response; details: Flood, 250 g ai/ha; scale of 0 to 100 where 0 is no effect and 100 is complete control; 13 to 15 days
# Summary of the method: as §2
# [10] = tested on: chickweed (common chickweed, Stellaria media); assay: Test D postemergence plant response; details: for Chickweed plant response rating: scale 0 to 100 (0 no effect, 100 complete control); for Plant response rating, Chickweed: scale 0 to 100, 0 no effect, 100 complete control
# Summary of the method: (§3)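 The formulated test chemicals were applied over the foliage of young potted plants (2 to 18 cm tall), which were then held under greenhouse conditions. Between days 13 and 15 each species was rated by eye versus controls, from 0 for no effect up to 100 for complete control.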
# wild oat (Avena fatua) = assay: Test D postemergence plant response
# Summary of the method: as §3
# kochia (Kochia scoparia) = assay: Test D postemergence plant response; details: for Kochia plant response rating: scale 0 to 100 (0 no effect, 100 complete control); for Plant response rating, Kochia: scale 0 to 100, 0 no effect, 100 complete control
# Summary of the method: as §3
# [11] = Postemergence, 16 g ai/ha, scale 0 to 100 (0 no effect, 100 complete control)
# [12] = Postemergence, 31 g ai/ha, scale 0 to 100 (0 no effect, 100 complete control)
# [13] = Postemergence, 62 g ai/ha, scale 0 to 100, 0 no effect, 100 complete control
# [14] = Postemergence, 125 g ai/ha, scale 0 to 100, 0 no effect, 100 complete control
# [15] = Preemergence, 16 g ai/ha, scale 0 to 100 (0 no effect, 100 complete control)
# [16] = Preemergence, 31 g ai/ha, scale 0 to 100 (0 no effect, 100 complete control)
# [17] = Preemergence, 62 g ai/ha, scale 0 to 100 (0 no effect, 100 complete control)
# [18] = 31 g ai/ha, scale 0 to 100 (0 no effect, 100 complete control)
# [19] = 62 g ai/ha, scale 0 to 100, 0 no effect, 100 complete control
# [20] = 125 g ai/ha, scale 0 to 100, 0 no effect, 100 complete control
compound,measurement,setting,value
Cc1cc(-c2ccccc2Oc2ncc(Cl)cn2)on1 [Compound 58],"Nutsedge, Yellow plant response rating",[1]; [11],0
same,"Nutsedge, Yellow plant response rating",[1]; [12],0
same,"Plant response rating, Nutsedge, Yellow",[1]; [13],0
same,"Plant response rating, Nutsedge, Yellow",[1]; [14],0
same,"Plant response rating (scale 0 to 100), Nutsedge, Yellow","[1]; Preemergence, 125 g ai/ha",15
same,"Plant response rating, Nutsedge, Yellow",[1]; [15],0
same,"Plant response rating, Nutsedge, Yellow",[1]; [16],0
same,"Plant response rating, Nutsedge, Yellow",[1]; [17],0
same,Johnsongrass plant response rating,[2]; [11],0
same,Johnsongrass plant response rating,[2]; [12],0
same,"Plant response rating, Johnsongrass",[2]; [13],0
same,"Plant response rating, Johnsongrass",[2]; [14],5
same,"Plant response rating (scale 0 to 100), Johnsongrass","[2]; Preemergence, 125 g ai/ha",50
same,"Plant response rating, Johnsongrass",[2]; [15],10
same,"Plant response rating, Johnsongrass",[2]; [16],10
same,"Plant response rating, Johnsongrass",[2]; [17],20
same,Oilseed Rape plant response rating,[3]; [11],5
same,Oilseed Rape plant response rating,[3]; [12],10
same,"Plant response rating, Oilseed Rape",[3]; [13],60
same,"Plant response rating, Oilseed Rape",[3]; [14],75
same,"Plant response rating (scale 0 to 100), Oilseed Rape","[3]; Preemergence, 125 g ai/ha",100
same,"Plant response rating, Oilseed Rape",[3]; [15],60
same,"Plant response rating, Oilseed Rape",[3]; [16],98
same,"Plant response rating, Oilseed Rape",[3]; [17],100
same,Velvetleaf plant response rating,[4]; [11],60
same,Velvetleaf plant response rating,[4]; [12],35
same,"Plant response rating, Velvetleaf",[4]; [13],60
same,"Plant response rating, Velvetleaf",[4]; [14],85
same,"Plant response rating (scale 0 to 100), Velvetleaf","[4]; Preemergence, 125 g ai/ha",100
same,"Plant response rating, Velvetleaf",[4]; [15],85
same,"Plant response rating, Velvetleaf",[4]; [16],100
same,"Plant response rating, Velvetleaf",[4]; [17],100
same,"Crabgrass, Large plant response rating",[5]; [11],5
same,"Crabgrass, Large plant response rating",[5]; [12],5
same,"Plant response rating, Crabgrass, Large",[5]; [13],5
same,"Plant response rating, Crabgrass, Large",[5]; [14],5
same,"Plant response rating (scale 0 to 100), Crabgrass, Large","[5]; Preemergence, 125 g ai/ha",100
same,"Plant response rating, Crabgrass, Large",[5]; [15],25
same,"Plant response rating, Crabgrass, Large",[5]; [16],90
same,"Plant response rating, Crabgrass, Large",[5]; [17],100
same,Soybean plant response rating,soybean (Glycine max); [11],55
same,Soybean plant response rating,soybean (Glycine max); [12],40
same,"Plant response rating, Soybean",soybean (Glycine max); [13],60
same,"Plant response rating, Soybean",soybean (Glycine max); [14],75
same,"Plant response rating (scale 0 to 100), Soybean","soybean (Glycine max); Preemergence, 125 g ai/ha",85
same,"Plant response rating, Soybean",soybean (Glycine max); [15],30
same,"Plant response rating, Soybean",soybean (Glycine max); [16],35
same,"Plant response rating, Soybean",soybean (Glycine max); [17],80
same,Wheat plant response rating,[6]; [11],0
same,Wheat plant response rating,[6]; [12],5
same,"Plant response rating, Wheat",[6]; [13],10
same,"Plant response rating, Wheat",[6]; [14],10
same,"Plant response rating (scale 0 to 100), Wheat","[6]; Preemergence, 125 g ai/ha",0
same,"Plant response rating, Wheat",[6]; [15],0
same,"Plant response rating, Wheat",[6]; [16],0
same,"Plant response rating, Wheat",[6]; [17],0
same,"Sedge, Umbrella plant response rating",[7],40
same,Barnyardgrass plant response rating,[8],0
same,Rice plant response rating,rice (Oryza sativa),0
same,Ducksalad plant response rating,[9],80
same,Chickweed plant response rating,[10]; 16 g ai/ha,5
same,Chickweed plant response rating,[10]; 31 g ai/ha,10
same,"Plant response rating, Chickweed",[10]; 62 g ai/ha,15
same,"Plant response rating, Chickweed",[10]; 125 g ai/ha,30
same,"Oat, Wild plant response rating","wild oat (Avena fatua); 16 g ai/ha, scale 0 to 100 (0 no effect, 100 complete control)",0
same,"Oat, Wild plant response rating",wild oat (Avena fatua); [18],0
same,"Plant response rating, Oat, Wild",wild oat (Avena fatua); [19],0
same,"Plant response rating, Oat, Wild",wild oat (Avena fatua); [20],0
same,Kochia plant response rating,kochia (Kochia scoparia); 16 g ai/ha,35
same,Kochia plant response rating,kochia (Kochia scoparia); 31 g ai/ha,50
same,"Plant response rating, Kochia",kochia (Kochia scoparia); 62 g ai/ha,60
same,"Plant response rating, Kochia",kochia (Kochia scoparia); 125 g ai/ha,80
Fc1cccc(Oc2ncc(Cl)cn2)c1-c1cc(C(F)(F)F)no1 [Compound 228],"Plant response rating (scale 0 to 100), Nutsedge, Yellow","[1]; Postemergence, 16 g ai/ha",5
same,"Nutsedge, Yellow plant response rating",[1]; [12],5
same,"Nutsedge, Yellow plant response rating",[1]; [13],5
same,"Plant response rating, Nutsedge, Yellow",[1]; [14],10
same,"Plant response rating (scale 0 to 100), Johnsongrass","[2]; Postemergence, 16 g ai/ha",10
same,Johnsongrass plant response rating,[2]; [12],10
same,"Plant response rating, Johnsongrass",[2]; [13],25
same,"Plant response rating, Johnsongrass",[2]; [14],60
same,"Plant response rating (scale 0 to 100), Oilseed Rape","[3]; Postemergence, 16 g ai/ha",65
same,Oilseed Rape plant response rating,[3]; [12],85
same,Oilseed Rape plant response rating,[3]; [13],80
same,"Plant response rating, Oilseed Rape",[3]; [14],98
same,"Plant response rating (scale 0 to 100), Velvetleaf","[4]; Postemergence, 16 g ai/ha",35
same,Velvetleaf plant response rating,[4]; [12],40
same,Velvetleaf plant response rating,[4]; [13],65
same,"Plant response rating, Velvetleaf",[4]; [14],80
same,"Plant response rating (scale 0 to 100), Crabgrass, Large","[5]; Postemergence, 16 g ai/ha",15
same,"Crabgrass, Large plant response rating",[5]; [12],20
same,"Plant response rating, Crabgrass, Large",[5]; [13],35
same,"Plant response rating, Crabgrass, Large",[5]; [14],45
same,"Plant response rating (scale 0 to 100), Soybean","soybean (Glycine max); Postemergence, 16 g ai/ha",60
same,Soybean plant response rating,soybean (Glycine max); [12],55
same,Soybean plant response rating,soybean (Glycine max); [13],80
same,"Plant response rating, Soybean",soybean (Glycine max); [14],80
same,"Plant response rating (scale 0 to 100), Wheat","[6]; Postemergence, 16 g ai/ha",0
same,Wheat plant response rating,[6]; [12],5
same,Wheat plant response rating,[6]; [13],10
same,"Plant response rating, Wheat",[6]; [14],10
same,"Sedge, Umbrella plant response rating",[7],90
same,Barnyardgrass plant response rating,[8],40
same,Rice plant response rating,rice (Oryza sativa),0
same,Ducksalad plant response rating,[9],85
same,"Plant response rating (scale 0 to 100), Chickweed",[10]; 16 g ai/ha,85
same,Chickweed plant response rating,[10]; 31 g ai/ha,85
same,"Plant response rating, Chickweed",[10]; 62 g ai/ha,98
same,"Plant response rating, Chickweed",[10]; 125 g ai/ha,100
same,"Plant response rating (scale 0 to 100), Oat, Wild",wild oat (Avena fatua); 16 g ai/ha,10
same,"Oat, Wild plant response rating",wild oat (Avena fatua); [18],20
same,"Oat, Wild plant response rating",wild oat (Avena fatua); [19],40
same,"Plant response rating, Oat, Wild",wild oat (Avena fatua); [20],55
same,"Plant response rating (scale 0 to 100), Kochia",kochia (Kochia scoparia); 16 g ai/ha,100
same,Kochia plant response rating,kochia (Kochia scoparia); 31 g ai/ha,100
same,"Plant response rating, Kochia",kochia (Kochia scoparia); 62 g ai/ha,100
same,"Plant response rating, Kochia",kochia (Kochia scoparia); 125 g ai/ha,100
